In PubChem BioAssay (NCI):
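Following 48 hours of exposure in 96-well plates, responses at five concentrations were used to interpolate endpoints linearly. Abbreviation: GI50, concentration required for 50% inhibition of growth. At the TGI there is no net growth.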

How the values were obtained:
Assay in all cases: inhibition of tumour cell growth, NCI panel, 48 h
HT29 colon = system: HT29 colon
A549 NSCLC = system: A549 NSCLC
SN12C renal = system: SN12C renal
HL-60(TB) leukemia = system: HL-60(TB) leukemia
HOP-62 NSCLC = system: HOP-62 NSCLC
NCI-H522 lung = system: NCI-H522 lung
NCI-H460 lung = system: NCI-H460 lung
SK-MEL-28 melanoma = system: SK-MEL-28 melanoma
SK-MEL-5 melanoma = system: SK-MEL-5 melanoma
A498 renal = system: A498 renal

| SMILES | TGI (HT29 colon) [µM] | TGI (A549 NSCLC) [µM] | TGI (SN12C renal) [µM] | TGI (HL-60(TB) leukemia) [µM] | TGI (HOP-62 NSCLC) [µM] | TGI (NCI-H522 lung) [µM] | TGI (NCI-H460 lung) [µM] | TGI (SK-MEL-28 melanoma) [µM] | TGI (SK-MEL-5 melanoma) [µM] | TGI (A498 renal) [µM] | GI50 (HT29 colon) [µM] | GI50 (A549 NSCLC) [µM] | GI50 (SN12C renal) [µM] | GI50 (HL-60(TB) leukemia) [µM] | GI50 (HOP-62 NSCLC) [µM] | GI50 (NCI-H522 lung) [µM] | GI50 (NCI-H460 lung) [µM] | GI50 (SK-MEL-28 melanoma) [µM] | GI50 (SK-MEL-5 melanoma) [µM] | GI50 (A498 renal) [µM] |
| --- | --- | --- | --- | --- | --- | --- | --- | --- | --- | --- | --- | --- | --- | --- | --- | --- | --- | --- | --- | --- |
| C=C(C)[C@@H]1CC[C@@H]2C(=CC[C@]3(C)C([C@H](C)CC/C=C(/C)C(=O)O)CC[C@@]23C)[C@@]1(C)CCC(=O)O (some centres undefined) | 48.4 | > 100 | > 100 | 72.5 | > 100 | 91.6 | 40.6 | 98.9 | 41.2 | 74.4 | – | – | – | – | – | – | – | – | – | – |
| COc1ccc(OC)c(/C=C/C(=O)c2ccc(SC)cc2)c1 | > 100 | > 100 | 33.9 | 12.6 | 52.3 | 23.4 | 17.6 | 51.1 | 14 | 30.3 | 3.89 | 28.9 | 17.2 | 3.65 | 18.4 | 6.91 | 3.82 | 10.1 | 3.31 | 13.7 |
| CCC[CH2][Sn]1([CH2]CCC)[O]N=Cc2ccccc2[O]1 | 3.36 | 3.8 | 2.54 | 0.726 | 3.12 | 0.229 | 2.76 | 1.87 | 2.83 | 2.8 | 1.75 | 1.84 | 1.27 | 0.183 | 1.62 | 0.102 | 1.44 | 0.58 | 1.46 | 1.43 |
| CC1(C)CC(=O)C=C(NC(=O)c2ccccc2)C1 | > 100 | > 100 | > 100 | > 100 | > 100 | > 100 | > 100 | > 100 | > 100 | > 100 | – | – | – | – | – | – | – | – | – | – |
| Cn1ccnc1C(=O)/C=C/c1ccc(CC(=O)Nc2cc(F)c(F)c(F)c2)cc1 | 12.7 | 20.2 | 8.61 | 2.45 | 4.94 | 7.72 | 11.8 | 7.69 | 6.47 | 7.65 | 0.861 | 1.57 | 1.4 | 0.716 | 1.17 | 2.64 | 1.49 | 3.64 | 3.25 | 3.58 |
| O=C(Nc1ccc(I)cc1F)c1cc(F)ccc1O | > 100 | > 100 | 3.77 | 1.93 | 6.46 | – | > 27.7 | 1.91 | 0.556 | 0.634 | 3.44 | 2.24 | 0.354 | 0.382 | 1.77 | 0.304 | 0.456 | 0.353 | 0.229 | 0.163 |
| O=C(O)CNCc1c2ccccc2nc2ccccc12 | > 84.8 | > 100 | > 100 | 29.6 | > 100 | 57.5 | > 86.7 | > 100 | > 60.4 | > 100 | – | – | – | – | – | – | – | – | – | – |
